From patent US4605615A, “L-glutamic acid oxidase (H2 O2 -generating), its production and analytical method therefor” (priority 1982, dated 1986)
Read-outs that look alike come from different tables or passages of the source.

How the values were obtained:
[1] = tested on: A8063 enzyme; test: Effect of metal ions on enzyme activity; format: biochemical, Streptomyces sp. A8063; details: metalic salt 1.0 mM
Method: (§1) The above mixture (3.0 ml) was introduced into a quartz cell at 37° C., to which was immediately added and mixed the enzyme solution (50 μl), in a constant temperature (37° C.) cell-holder of a spectrophotometer. Then the mixture was incubated for exactly 5 minutes after 2 minutes of mixing with the enzyme solution, and the variation of absorption (optical density ΔA545) at 545 nm is measured.
(§2) The activity of the enzyme is calculated by the following equation: [formula] 2. Substrate specificity:
(§3) The effect of metal ions is shown in Table 5, in which ions other than Cu^++ show no effect on the enzymes.

[2] = tested on: A7700 enzyme; test: Effect of metal ions on enzyme activity; format: biochemical, Streptomyces sp. A7700; details: metalic salt 1.0 mM
Method: as §1, §2, §3

[3] = tested on: A8063 enzyme; test: Substrate specificity: relative activity on various substrates; format: biochemical, Streptomyces sp. A8063
Method: as §1, §2
(§4) The relative activities (%) of enzyme L-glutamic acid oxidases produced by Streptomyces sp. A7700 (hereinafter designated as A7700 enzyme) and by Streptomyces sp. A8063 (hereinafter designated as A8063 enzyme), respectively, on various substrates as compared with L-glutamic acid, are measured.

[4] = tested on: A7700 enzyme; test: as above; format: biochemical, Streptomyces sp. A7700
Method: as §1, §2, §4

[5] = tested on: A8063 enzyme; test: Effect of surface active agents and other substances on enzyme activity; format: biochemical, Streptomyces sp. A8063
Method: as §1
(§5) The activity of the enzyme is calculated by the following equation: [formula] 2.

[6] = tested on: A7700 enzyme; test: as above; format: biochemical, Streptomyces sp. A7700
Method: as §1, §5

[7] = tested on: A7700 enzyme; details: read-out: Km value; A7700 enzyme against L-glutamic acid
[8] = tested on: A8063 enzyme; details: read-out: Km value; A8063 enzyme against L-glutamic acid

Compound: [Ba+2].[Cl-].[Cl-] [BaCl2]
- Relative activity (%) [1]: 103.7%
- Relative activity (%) [2]: 102.5%

Compound: N=C(N)NCCC[C@H](N)C(=O)O [L-arginine]
- Relative activity (%) on substrate as compared with L-glutamic acid [3]: 0%
- Relative activity (%) on substrate as compared with L-glutamic acid [4]: 0%

Compound: [Cl][Mn][Cl] [MnCl2]
- Relative activity (%) [1]: 105.7%
- Relative activity (%) [2]: 108.6%

Compound: CSCC[C@H](N)C(=O)O [L-methionine]
- Relative activity (%) on substrate as compared with L-glutamic acid [3]: 0%
- Relative activity (%) on substrate as compared with L-glutamic acid [4]: 0%

Compound: O=C(O)CN(CCN(CC(=O)O)CC(=O)O)CC(=O)O [EDTA]
- Effect of additive on enzyme activity (in words) [5]: lack of effect
- Relative activity (%) [5]: 100.7%
- Effect of additive on enzyme activity (in words) [6]: lack of effect
- Relative activity (%) [6]: 93.8%

Compound: Cc1cc2nc3c(=O)[nH]c(=O)nc-3n(C[C@H](O)[C@H](O)[C@H](O)COP(=O)(O)O)c2cc1C [FMN]
- Relative activity (%) ([5]; A8063, additive 0.01 mM): 97.1%
- Effect of additive on enzyme activity (in words) ([5]; A8063 enzyme): not affected
- Relative activity (%) ([6]; A7700, additive 0.01 mM): 88.9%
- Effect of additive on enzyme activity (in words) ([6]; A7700 enzyme): not affected

Compound: NO [hydroxylamine]
- Relative activity (%) on substrate as compared with L-glutamic acid [3]: 0%
- Relative activity (%) on substrate as compared with L-glutamic acid [4]: 0%

Compound: [Cl-].[Cl-].[Zn+2] [ZnCl2]
- Relative activity (%) [1]: 110.7%
- Relative activity (%) [2]: 106.1%

Compound: O=C(O)c1cc[c]([Hg][Cl])cc1 [PCMB]
- Relative activity (%) ([5]; A8063, additive 0.002%): 98.2%
- Relative activity (%) ([6]; A7700, additive 0.002%): 107.6%

Compound: C[C@@H](O)[C@H](N)C(=O)O [L-threonine]
- Relative activity (%) on substrate as compared with L-glutamic acid [3]: 0%
- Relative activity (%) on substrate as compared with L-glutamic acid [4]: 0%

Compound: Cc1cc2nc3c(=O)[nH]c(=O)nc-3n(C[C@H](O)[C@H](O)[C@H](O)COP(=O)(O)OP(=O)(O)OC[C@H]3O[C@@H](n4cnc5c(N)ncnc54)[C@H](O)[C@@H]3O)c2cc1C [FAD]
- Relative activity (%) ([5]; A8063, additive 0.01 mM): 100.7%
- Effect of additive on enzyme activity (in words) ([5]; A8063 enzyme): not affected
- Relative activity (%) ([6]; A7700, additive 0.01 mM): 100.7%
- Effect of additive on enzyme activity (in words) ([6]; A7700 enzyme): not affected

Compound: [Ca+2].[Cl-].[Cl-] [CaCl2]
- Relative activity (%) [1]: 103.0%
- Relative activity (%) [2]: 98.8%

Compound: [Cl][Ni][Cl] [NiCl2]
- Relative activity (%) [1]: 102.3%
- Relative activity (%) [2]: 101.8%

Compound: N[C@@H](Cc1c[nH]cn1)C(=O)O [L-histidine]
- Relative activity (%) on substrate as compared with L-glutamic acid [3]: 0%
- Relative activity (%) on substrate as compared with L-glutamic acid [4]: 0%

Compound: CN [methylamine]
- Relative activity (%) on substrate as compared with L-glutamic acid [3]: 0%
- Relative activity (%) on substrate as compared with L-glutamic acid [4]: 0%

Compound: CCCCN [butylamine]
- Relative activity (%) on substrate as compared with L-glutamic acid [3]: 0%
- Relative activity (%) on substrate as compared with L-glutamic acid [4]: 0%

Compound: CCN [ethylamine]
- Relative activity (%) on substrate as compared with L-glutamic acid [3]: 0%
- Relative activity (%) on substrate as compared with L-glutamic acid [4]: 0%

Compound: C[C@H](N)C(=O)O [L-alanine]
- Relative activity (%) on substrate as compared with L-glutamic acid [3]: 0%
- Relative activity (%) on substrate as compared with L-glutamic acid [4]: 0%

Compound: N[C@@H](Cc1ccc(O)cc1)C(=O)O [L-tyrosine]
- Relative activity (%) on substrate as compared with L-glutamic acid [3]: 0%
- Relative activity (%) on substrate as compared with L-glutamic acid [4]: 0%

Compound: CCCCCCCCCCCCOS(=O)(=O)O [SDS]
- Relative activity (%) ([5]; A8063, additive 0.1%): 93.1%
- Relative activity (%) ([6]; A7700, additive 0.1%): 106.3%

Compound: N[C@@H](CO)C(=O)O [L-serine]
- Relative activity (%) on substrate as compared with L-glutamic acid [3]: 0%
- Relative activity (%) on substrate as compared with L-glutamic acid [4]: 0%

Compound: [Cl][Cu][Cl] [CuCl2]
- Relative activity (%) [1]: 62.1%
- Relative activity (%) [2]: 50.3%

Compound: N[C@@H](CCC(=O)O)C(=O)O [L-glutamic acid]
- Km [7]: ~560 µM
- Activity of enzyme on substrate (in words) [3]: specific activity
- Relative activity (%) on substrate as compared with L-glutamic acid [3]: 100%
- Activity of enzyme on substrate (in words) [4]: specific activity
- Relative activity (%) on substrate as compared with L-glutamic acid [4]: 100%
- Km [8]: ~1100 µM

Compound: NCCCC[C@H](N)C(=O)O [L-lysine]
- Relative activity (%) on substrate as compared with L-glutamic acid [3]: 0%
- Relative activity (%) on substrate as compared with L-glutamic acid [4]: 0%

Compound: NCc1ccccc1 [benzylamine]
- Relative activity (%) on substrate as compared with L-glutamic acid [3]: 0%
- Relative activity (%) on substrate as compared with L-glutamic acid [4]: 0%

Compound: [Cl-].[Cl-].[Mg+2] [MgCl2]
- Relative activity (%) [1]: 103.4%
- Relative activity (%) [2]: 102.5%

Compound: CCCCCCCCCCCCCCCC[N+](C)(C)C [CTACl]
- Relative activity (%) ([5]; A8063, additive 0.1%): 94.2%
- Relative activity (%) ([6]; A7700, additive 0.1%): 98.6%

Compound: CC[C@H](C)[C@H](N)C(=O)O [L-isoleucine]
- Relative activity (%) on substrate as compared with L-glutamic acid [3]: 0%
- Relative activity (%) on substrate as compared with L-glutamic acid [4]: 0%

Compound: NCCc1ccc(O)cc1 [tyramine]
- Relative activity (%) on substrate as compared with L-glutamic acid [3]: 0%
- Relative activity (%) on substrate as compared with L-glutamic acid [4]: 0%

Compound: N[C@H](CCC(=O)O)C(=O)O [D-glutamic acid]
- Relative activity (%) on substrate as compared with L-glutamic acid [3]: 0%
- Relative activity (%) on substrate as compared with L-glutamic acid [4]: 0%

Compound: C[C@H](CCC(=O)O)[C@H]1CC[C@H]2[C@@H]3[C@H](O)C[C@@H]4C[C@H](O)CC[C@]4(C)[C@H]3C[C@H](O)[C@]12C [sodium cholate]
- Relative activity (%) ([5]; A8063, additive 0.1%): 100.0%
- Relative activity (%) ([6]; A7700, additive 0.1%): 104.2%

Compound: CCCN [propylamine]
- Relative activity (%) on substrate as compared with L-glutamic acid [3]: 0%
- Relative activity (%) on substrate as compared with L-glutamic acid [4]: 0%

Compound: [Cl-].[Cl-].[Co+2] [CoCl2]
- Relative activity (%) [1]: 98.0%
- Relative activity (%) [2]: 99.4%

Compound: N[C@@H](Cc1ccccc1)C(=O)O [L-phenylalanine]
- Relative activity (%) on substrate as compared with L-glutamic acid [3]: 0%
- Relative activity (%) on substrate as compared with L-glutamic acid [4]: 0%

Compound: [Cl][Fe]([Cl])[Cl] [FeCl3]
- Relative activity (%) [1]: 103.0%
- Relative activity (%) [2]: 109.2%

Compound: CC(C)[C@H](N)C(=O)O [L-valine]
- Relative activity (%) on substrate as compared with L-glutamic acid [3]: 0%
- Relative activity (%) on substrate as compared with L-glutamic acid [4]: 0%

Compound: [N-]=[N+]=[N-].[Na+] [NaN3]
- Relative activity (%) ([5]; A8063, additive 10 mM): 102.6%
- Effect of additive on enzyme activity (in words) ([5]; A8063 enzyme): not inhibited
- Relative activity (%) ([6]; A7700, additive 10 mM): 101.4%
- Effect of additive on enzyme activity (in words) ([6]; A7700 enzyme): not inhibited
